# Data reported in paper PMC5466632, “Clinical on-site monitoring of ß-lactam antibiotics for a personalized antibiotherapy” (Scientific Reports, 2017).
# Where two headings read alike, the source gives them in different places.
# Tests used:
# [1] = target: T1, PBP3 (penicillin-binding protein 3, PBP3*) (Streptococcus pneumoniae, UniProt Q8DQ99); test: competitive enzyme-linked assay on electrochemical microfluidic chip, avidin-glucose oxidase readout
# T1 construct: gene dacA; soluble truncated PBP3 (Gly15-Lys394), N-terminal hexa-His tag kept, synthetic gene, expressed in E. coli BL21*(DE3) pLysS, Ni-NTA purified; captured on anti-His antibody
# T1 sequence (Q8DQ99 15-394): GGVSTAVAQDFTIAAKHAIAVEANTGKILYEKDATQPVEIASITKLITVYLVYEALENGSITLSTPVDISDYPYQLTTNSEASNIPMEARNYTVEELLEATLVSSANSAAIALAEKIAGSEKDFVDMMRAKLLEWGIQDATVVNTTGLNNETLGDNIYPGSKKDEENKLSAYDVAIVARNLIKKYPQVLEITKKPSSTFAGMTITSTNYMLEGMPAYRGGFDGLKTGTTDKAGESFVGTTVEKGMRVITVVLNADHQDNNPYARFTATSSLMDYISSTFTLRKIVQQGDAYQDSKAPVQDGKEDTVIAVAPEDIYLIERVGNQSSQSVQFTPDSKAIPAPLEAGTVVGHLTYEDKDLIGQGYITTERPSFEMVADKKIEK
# Description: competitive enzyme-linked assay on electrochemical microfluidic chip, avidin-glucose oxidase readout on PBP3 (penicillin-binding protein 3, PBP3*)
# [2] = target: T1, PBP3 (penicillin-binding protein 3, PBP3*); test: competitive enzyme-linked assay on microtiter plate, optical readout; settings: competition with ampicillin-biotin conjugate
smiles,measurement,setting,value
CCN1CCN(C(=O)N[C@@H](C(=O)N[C@@H]2C(=O)N3[C@@H]2SC(C)(C)[C@@H]3C(=O)O)c2ccccc2)C(=O)C1=O [piperacillin],IC50,[1]; read-out: Piperacillin (converted),0.0355 µM
CO/N=C(\C(=O)N[C@@H]1C(=O)N2C(C(=O)O)=C(COC(N)=O)CS[C@H]12)c1ccco1 [cefuroxime],IC50,[1]; read-out: Cefuroxime (converted),0.0261 µM
Cc1nnc(SCC2=C(C(=O)O)N3C(=O)[C@@H](NC(=O)Cn4cnnn4)[C@H]3SC2)s1 [cefazolin],IC50,[1]; read-out: Cefazolin (converted),0.0192 µM
CC1(C)S[C@@H]2[C@H](NC(=O)[C@H](N)c3ccccc3)C(=O)N2[C@H]1C(=O)O [ampicillin],"competitive enzyme-linked assay on microtiter plate, optical readout",[2],confirmed via the optical quantification of ampicillin on a microtiter plate
